The values below come from US20200325140A1, “FUSED BICYCLIC COMPOUNDS FOR THE TREATMENT OF DISEASE” (Akarna Therapeutics, Ltd., priority 2016, published 2020).

For this assay, the target named is T1, FXR (Homo sapiens, UniProt Q96RI1).
T1 sequence (Q96RI1 1-486): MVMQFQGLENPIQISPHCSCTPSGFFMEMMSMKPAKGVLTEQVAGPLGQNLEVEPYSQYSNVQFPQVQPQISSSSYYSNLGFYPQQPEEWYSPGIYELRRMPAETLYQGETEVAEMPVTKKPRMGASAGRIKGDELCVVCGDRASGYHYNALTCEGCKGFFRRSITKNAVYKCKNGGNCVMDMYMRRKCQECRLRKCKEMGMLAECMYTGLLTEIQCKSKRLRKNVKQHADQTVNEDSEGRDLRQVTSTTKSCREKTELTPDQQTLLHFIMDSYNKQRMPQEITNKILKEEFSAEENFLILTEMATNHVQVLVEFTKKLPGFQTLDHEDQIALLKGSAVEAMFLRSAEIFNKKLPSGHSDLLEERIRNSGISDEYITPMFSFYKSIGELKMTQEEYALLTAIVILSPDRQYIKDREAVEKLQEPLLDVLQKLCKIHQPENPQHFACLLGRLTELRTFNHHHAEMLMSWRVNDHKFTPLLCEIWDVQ
The assay is described as follows: FXR Agonist Assay (Gaussia luciferase reporter in cells). It is filed as cell-based. The settings on record: 20 hours incubation, 10-point dilution, duplicate. As for the experimental part: Starting from 3.33 mM of compound in DMSO solution, a 10-point 3-fold serial dilution was made by diluting 5 μL of compound into 10 μL of DMSO. The serially diluted compound was then diluted 1:33 into DMEM. This medium was then diluted ten-fold into the culture medium with the cells (10 μL/well). All concentration points are assayed in duplicate. Plates were incubated at 37° C. for 20 hours. After the incubation, 20 μL of culture medium were removed from each well and mixed with 50 μL of assay solution (Pierce™ Gaussia Luciferase Flash Assay Kit). The luminescence was measured immediately after addition of the Luc substrate with an Envision microplate reader. The raw data was uploaded to CDD and dose-response curves were generated using the Levenberg-Marquardt algorithm integrated into CDD. A negative control DMSO is included on each plate and used to normalize the data with the CDD built-in normalization function.

For the compound `CC(C)OC(=O)C1=CN(C(=O)c2cc(F)c(OCCN3CCOCC3)c(F)c2)CC(C)(C)c2c(C(F)(F)F)n[nH]c21` [Compound 5, (E)-isopropyl 6-(3,5-difluoro-4-(2-morpholinoethoxy)benzoyl)-4,4-dimethyl-3-(trifluoromethyl)-1,4,5,6-tetrahydropyrazolo[3,4-d]azepine-8-carboxylate], the EC50 is less than 200 nM.

The compound `CC(C)OC(=O)C1=CN(C(=O)c2ccc(OCCN3CCN(C)CC3)cc2)CC(C)(C)c2c(C(F)(F)F)n[nH]c21` [Compound 3, (E)-isopropyl 4,4-dimethyl-6-(4-(2-(4-methylpiperazin-1-yl)ethoxy)benzoyl)-3-(trifluoromethyl)-1,4,5,6-tetrahydropyrazolo[3,4-d]azepine-8-carboxylate] came in with an EC50 of 200 to 1000 nM. To `CC(C)OC(=O)C1=CN(C(=O)c2ccc(OCCN3CCCC3)cc2)CC(C)(C)c2c(C(F)(F)F)n[nH]c21` [Compound 4, (E)-isopropyl 4,4-dimethyl-6-(4-(2-(pyrrolidin-1-yl)ethoxy)benzoyl)-3-(trifluoromethyl)-1,4,5,6-tetrahydropyrazolo[3,4-d]azepine-8-carboxylate] belongs 1000 to 10000 nM; to `CC(C)OC(=O)C1=CN(C(=O)c2ccc(OCCN(C)C)cc2)CC(C)(C)c2c(C(F)(F)F)n[nH]c21` [Compound 1, (E)-isopropyl 6-(4-(2-(dimethylamino)ethoxy)benzoyl)-4,4-dimethyl-3-(trifluoromethyl)-1,4,5,6-tetrahydropyrazolo[3,4-d]azepine-8-carboxylate], 200 to 1000 nM; to `CC(C)OC(=O)C1=CN(C(=O)c2ccc(OCCn3ccnc3)cc2)CC(C)(C)c2c(C(F)(F)F)n[nH]c21` [Compound 2, (E)-isopropyl 6-(4-(2-(1H-imidazol-1-yl)ethoxy)benzoyl)-4,4-dimethyl-3-(trifluoromethyl)-1,4,5,6-tetrahydropyrazolo[3,4-d]azepine-8-carboxylate], less than 200 nM.

The EC50 is the midpoint of the concentration-response curve. A low value points to greater potency.
